{"source": "paper PMC8395767", "about": "“Worsening of the Toxic Effects of (±)Cis-4,4′-DMAR Following Its Co-Administration with (±)Trans-4,4′-DMAR: Neuro-Behavioural, Physiological, Immunohistochemical and Metabolic Studies in Mice” (International Journal of Molecular Sciences, 2021)", "key": {"mice": {"tested_on": "mice", "test": "Core temperature (rectal probe), hyperthermia", "type": "in vivo", "protocol": "The effects of (±)cis-4,4′-DMAR, (±)trans-4,4′-DMAR and their co-administration were investigated by a protocol widely used in studies of “safety pharmacology” for the preclinical characterization of new molecules in rodents. This protocol includes a series of observational behavioural tests carried out in a consecutive manner that monitor the animal responses up to 5 h after compound injections. In the present study, we reported the observation of physiological (sweating, salivation, core temperature) and neuro-behavioural (detection of psychomotor agitation, spontaneous and stimulated aggressiveness, convulsions) changes occurring in mice after injection of (±)cis-4,4′-DMAR, (±)trans-4,4′-DMAR and their co-administration. Before pharmacological treatment the mouse was placed on a square plate (30 cm× 30 cm) raised from the ground (20 cm) and left free to move on the plate for 10 min (habituation period). The animal was then injected with the vehicle, substances alone ((±)cis-4,4′-DMAR or (±)trans-4,4′-DMAR) or in cis + trans co-administration and placed on the plate. From this moment, the recording time of the physiological and neuro-behavioural responses started, and these were detected in 5-min sessions.\nAfter the first 5 min, the animal was removed from the plate; the body core temperature was then measured, and the aggression tests were performed. The 5-min observation period was repeated at 15–30–60–90–120–180–240–300. Psychomotor agitation in the mouse was not simply related to an increase in spontaneous locomotion itself, but by an “unusual hyperactivity” which was characterised by rapid and sudden horizontal displacements in all directions, sustained turning behaviour, involuntary falls from the high plate during the evaluation of the tests, stereotyped movements and rearing activity. Mouse sweating and salivation were reported only if present or not. The core temperature was determined using a probe (1 mm diameter) that was gently inserted after lubrication with liquid Vaseline into the rectum of the mouse (to about 2 cm) and left in position until the temperature stabilised (about 10 s). The probe was connected to a digital thermometer. Spontaneous aggressive response was measured based on the number of times a mouse bit a grey cloth put in front of its snout. During the test, each mouse was free to move within the cage. In the case of stimulated aggressiveness, each mouse was manually restrained and held in a supine position following which an object was brought near the mouth. For both spontaneous and stimulated aggressive behaviour tests, a grey cloth was placed in front of the nose of each mouse 10 consecutive times (score 0/10 not aggressive, score 10/10 very aggressive). Convulsions were defined as a loss of righting reflexes for at least 5 s, combined with the presence of body tremors and clonic or tonic limb movements. Deaths caused by 4-4’-DMAR injection occurring during the observation period (5 h) were also reported as frequency (%) and time of death (min). Experiments were conducted inside the LARP (Centralised Preclinical Research Laboratory, University of Ferrara, Ferrara, Italy) in a thermo-stated (temperature 20–22 °C, humidity about 45–55%) and light controlled (about 150 lux) room, in which there was a background noise of about 40 ± 4 dB. The experiments, conducted in blind by trained observers working together in pairs, were videotaped and eventually analysed off-line by a different trained operator. The experiments were performed between 8:30 a.m. and 2:00 p.m.\n(§1) Sweating and salivation were expressed as frequency (e.g., % of animals that developed symptoms); psychomotor agitation was expressed as frequency (% of animals) and duration (total time in mins). Core temperature values were expressed as the difference between control temperature (before injection) and temperature following drug administration (Δ°C). […]"}, "3-nitrotyrosine (NT)": {"tested_on": "3-nitrotyrosine (NT)", "test": "Immunohistochemistry, frontal cortex: NT", "type": "in vivo, mice", "conditions": "vs control", "text": "(§2) Following the acute death or the sacrifice of the animals (after 5-h observation period by dislocation of the spine), brains were taken. These were fixed in 4% buffered formalin and then sampled and incorporated into the paraffin (Leica ASP300 processor, Histoline TEC2900 incorporator; Leica Microsystems Srl, Buccinasco, Milano, Italy). Subsequently, the cut (performed with the Leica HistoCore autocut microtome; Leica Microsystems Srl, Buccinasco, Milano, Italy) was designed to create sections with a thickness of 5 µm for each sample.\n(§3) On 5-µm-thick paraffined […] sections, we evaluated the expression of a panel of markers: heat shock proteins (HSP27, HSP70, HSP90), SMAC/DIABLO, NF-kB, iNOS, NOX-2, NT, 8-OHDG.\nWe used a detection system composed of a biotinylated secondary antibody and HRP-conjugated streptavidin (4plus HRP Universal Detection, Biocare Medical). 3′-,3Diaminobenzidine (DAB) and H2O2 (Betazoid DAB Chromogen Kit, Biocare Medical, Concord, CA, USA) were used as chromogen/substrate. The subsequent counterstaining with haematoxylin–eosin allowed the visualization of cell morphology and nuclei. Once this procedure was completed, the slides were mounted and observed under optical microscope. In the pictures (sections of the frontal cortex; Figure 3, Figure 4 and Figure 5) to evaluate the variation in the expression of markers (Smac, NOX2, iNOS, 8-OHdG, NT, HSP27, HSP70, HSP90) following treatments, the change in intensity of brown colour (staining of the immunohistochemical technique) in the control and treated tissue was measured. Quantification of Smac, NOX2, iNOS, 8-OHdG, NT, HSP27, HSP70 and HSP90 positive-stained areas was performed by the ImageJ software (imagej.nih.gov/ij/ Accessed date 12 May 2020). One image for each animal of the different experimental groups was processed. Positivity was expressed as an extension of the stained analysed area.\nSweating and salivation were expressed as frequency (e.g., % of animals that developed symptoms); psychomotor agitation was expressed as frequency (% of animals) and duration (total time in mins). Core temperature values were expressed as the difference between control temperature (before injection) and temperature following drug administration (Δ°C). Aggressiveness was expressed as frequency (% of animals which become aggressive) and score (number of bites). Convulsions were expressed as frequency (% of animals that developed seizure), episodes (e.g., number of seizure events), latency of first episode (sec.) and duration of each episode (sec.). Lethality was expressed as frequency (% of animals that died during the observation period (5 h) or during the following 24 h). The statistical analysis of the effects of the individual substances in different concentrations were performed using a one-way ANOVA followed by a Bonferroni test for multiple comparisons. A Student’s t-test was used to determine statistical significance (p < 0.05) between two groups. Regarding immunohistochemical analysis, positivity was expressed as the extension of stained analysed area. Results were expressed as means ± mean standard error (SEM). Data were analysed by one-way analysis of variance (ANOVA), followed by Tukey’s post-hoc test. For all tests, a p value of <0.05 was considered statistically significant. All statistical analyses were performed using GraphPad Prism 8 software for Windows (La Jolla, CA, USA)."}, "NF-kB": {"tested_on": "NF-kB", "test": "Immunohistochemistry, frontal cortex: NF-kB", "type": "in vivo, mice", "text": "as §2, §3\nWe used a detection system composed of a biotinylated secondary antibody and HRP-conjugated streptavidin (4plus HRP Universal Detection, Biocare Medical). […] In the pictures (sections of the frontal cortex; Figure 3, Figure 4 and Figure 5) to evaluate the variation in the expression of markers (Smac, NOX2, iNOS, 8-OHdG, NT, HSP27, HSP70, HSP90) following treatments, the change in intensity of brown colour (staining of the immunohistochemical technique) in the control and treated tissue was measured. Quantification of Smac, NOX2, iNOS, 8-OHdG, NT, HSP27, HSP70 and HSP90 positive-stained areas was performed by the ImageJ software (imagej.nih.gov/ij/ Accessed date 12 May 2020). […]"}, "HSP70": {"tested_on": "HSP70", "test": "Immunohistochemistry, frontal cortex: HSP70", "type": "in vivo, mice", "text": "as §2, §3\nWe used a detection system composed of a biotinylated secondary antibody and HRP-conjugated streptavidin (4plus HRP Universal Detection, Biocare Medical). 3′-,3Diaminobenzidine (DAB) and H2O2 (Betazoid DAB Chromogen Kit, Biocare Medical, Concord, CA, USA) were used as chromogen/substrate. […] In the pictures (sections of the frontal cortex; Figure 3, Figure 4 and Figure 5) to evaluate the variation in the expression of markers (Smac, NOX2, iNOS, 8-OHdG, NT, HSP27, HSP70, HSP90) following treatments, the change in intensity of brown colour (staining of the immunohistochemical technique) in the control and treated tissue was measured. Quantification of Smac, NOX2, iNOS, 8-OHdG, NT, HSP27, HSP70 and HSP90 positive-stained areas was performed by the ImageJ software (imagej.nih.gov/ij/ Accessed date 12 May 2020). […] Positivity was expressed as an extension of the stained analysed area.\nas §1, with “(Δ°C). Aggressiveness was expressed as frequency (% of animals which become aggressive) and score (number of bites).” for “(Δ°C).”"}, "[1]": {"conditions": "10 mg/kg i.p., n=4 mice (animals of the urine excretion study)"}}, "note": "“And” between values parts separate entries of the source, which are not always exact repeats. Equal entries are not always repeated. Marks after values point to notes of the source that are not given here."}
{"smiles": "Cc1ccc(C2OC(N)=NC2C)cc1", "note": "(stereo not drawn) [cis-4,4’-DMAR, 4-methyl-5-(4-methylphenyl)-4,5-dihydrooxazol-2-amine]", "values": [{"measurement": "Hyperthermia Variation (Δ°C)", "setting": "mice; 0.1 mg/kg i.p., n=6 mice", "value": "−0.18 ± 0.14 Δ°C"}, {"measurement": "Hyperthermia Variation (Δ°C)", "setting": "mice; 1 mg/kg i.p., n=6 mice", "value": "−0.22 ± 0.17 Δ°C"}, {"measurement": "Hyperthermia Variation (Δ°C)", "setting": "mice; 3 mg/kg i.p., n=6 mice", "value": "−0.34 ± 0.22 Δ°C"}, {"measurement": "Hyperthermia Variation (Δ°C)", "setting": "mice; [1]", "value": "−0.21 ± 0.15 Δ°C"}, {"measurement": "Hyperthermia Variation (Δ°C)", "setting": "mice; 10 mg/kg i.p., n=6 mice", "value": "−0.41 ± 0.13 Δ°C"}, {"measurement": "Hyperthermia Latency", "setting": "mice; 30 mg/kg i.p., n=6 mice", "value": "25 ± 0.25", "unit": "min"}, {"measurement": "Hyperthermia Variation (Δ°C)", "setting": "mice; 30 mg/kg i.p., n=6 mice", "value": "1.52 ± 0.11 ^c Δ°C"}, {"measurement": "Hyperthermia Variation (Δ°C)", "setting": "mice; 30 mg/kg i.p., n=6 mice, listed as (±)cis-4,4′-DMAR", "value": "1.52 ± 0.11 Δ°C"}, {"measurement": "Hyperthermia Latency", "setting": "mice; 60 mg/kg i.p., n=6 mice", "value": "7.12 ± 0.23", "unit": "min"}, {"measurement": "Hyperthermia Latency (min)", "setting": "mice; 60 mg/kg i.p., n=6 mice", "value": "7.12 ± 0.23 ^d min"}, {"measurement": "Hyperthermia Variation (Δ°C)", "setting": "mice; 60 mg/kg i.p., n=6 mice", "value": "2.22 ± 0.12 ^c Δ°C and 2.22 ± 0.12 Δ°C"}, {"measurement": "Hyperthermia Variation (Δ°C)", "setting": "mice; 60 mg/kg i.p., n=6 mice, listed as (±)cis-4,4′-DMAR", "value": "2.22 ± 0.12 Δ°C"}, {"measurement": "Hyperthermia", "setting": "mice; lower doses 0.1–10 mg/kg i.p., mice", "value": "ineffective"}, {"measurement": "Immunoreactivity of 3-nitrotyrosine (NT) in the frontal cortex", "setting": "3-nitrotyrosine (NT); 10 mg/kg", "value": "reduced"}, {"measurement": "Immunoreactivity of 3-nitrotyrosine (NT) in the frontal cortex", "setting": "3-nitrotyrosine (NT); 30 mg/kg", "value": "increased"}, {"measurement": "Immunoreactivity of 3-nitrotyrosine (NT) in the frontal cortex", "setting": "3-nitrotyrosine (NT); 30 mg/kg, listed as (±)cis", "value": "statistically significant increase"}, {"measurement": "Immunoreactivity of 3-nitrotyrosine (NT) in the frontal cortex", "setting": "3-nitrotyrosine (NT); 60 mg/kg", "value": "did not affect"}, {"measurement": "Immunoreactivity of NF-kB in the frontal cortex", "setting": "NF-kB; 10, 30 and 60 mg/kg, vs control", "value": "increased"}, {"measurement": "Immunoreactivity of HSP70 in the frontal cortex", "setting": "HSP70; 10 mg/kg alone", "value": "ineffective"}, {"measurement": "Immunoreactivity of HSP70 in the frontal cortex", "setting": "HSP70; 30 and 60 mg/kg, vs control", "value": "increased"}]}
{"smiles": "Cc1ccc(C2OC(N)=NC2C)cc1", "note": "(stereo not drawn) [trans-4,4’-DMAR, 4-methyl-5-(4-methylphenyl)-4,5-dihydrooxazol-2-amine]", "values": [{"measurement": "Hyperthermia Variation (Δ°C)", "setting": "mice; [1]", "value": "−0.32 ± 0.1 Δ°C"}, {"measurement": "Hyperthermia Variation (Δ°C)", "setting": "mice; 30 mg/kg i.p., n=6 mice", "value": "−0.37 ± 0.13 Δ°C"}, {"measurement": "Hyperthermia Variation (Δ°C)", "setting": "mice; 60 mg/kg i.p., n=6 mice", "value": "−0.35 ± 0.16 Δ°C"}, {"measurement": "Immunoreactivity of 3-nitrotyrosine (NT) in the frontal cortex", "setting": "3-nitrotyrosine (NT); 30 mg/kg", "value": "ineffective"}, {"measurement": "Immunoreactivity of NF-kB in the frontal cortex", "setting": "NF-kB; 30 mg/kg alone", "value": "ineffective"}, {"measurement": "Immunoreactivity of HSP70 in the frontal cortex", "setting": "HSP70; 30 mg/kg alone", "value": "ineffective"}]}
